Series [1] concerns EZH2 A677G mutant positive-expressing tumor cell line Pfeiffer. As to the kind of experiment: In vivo growth inhibition, Pfeiffer subcutaneous transplantation model. The settings on record: for Tumor volume: 200 mg/kg orally once a day. The text has this:
Test Example 2 Determination of the in vivo growth inhibition activity of the present compounds on EZH2 A677G mutant positive-expressing tumor cell line Pfeiffer NOD/SCID mice were subcutaneously inoculated with human diffuse large cell B lymphoma lymphocyte Pfeiffer (ATCC) expressing EZH2 A677G mutant protein to establish a subcutaneous transplantation model of human B cell lymphoma.
Experimental animals: NOD/SCID mice, female, 9 weeks (weeks of age when tumor cell inoculation), average weight 20.3 g, 18 mice, were purchased from Shanghai Lingchang biotechnology co., Ltd. with animal certificate No.: 2002007656. The breeding environment was SPF grade.
Test samples: the present example compounds 34 (purity: 99.03%) and 35 (purity: 97.6%), solid powder, preserved at −20° C.
Pfeiffer cells were cultured in RPM1640 medium containing 10% of fetal bovine serum. Log-phase Pfeiffer cells were collected and resuspended with PBS to 1×10^8 cells per ml for subcutaneous inoculation in NOD/SCID mice.
All the mice were treated with Co60 irradiation at a dose of 200 rad the day before the inoculation, and 1×10^7 Pfeiffer cells were then subcutaneously inoculated at the right back, and the cells were resuspended in 1:1 PBS and Matrigel (0.1 ml/mouse). When the average tumor volume was 134 mm^3, the mice were randomly grouped according to tumor size. Tumor volume was calculated as: long diameter×short diameter^2/2. The day of tumor cells inoculation was defined as day 0. The test was divided into solvent control group and drug treatment group (compound 34 group and compound 35 group). 6 mice for each group were given orally once a day for a total of 4 weeks. Efficacy was assessed based on relative tumor growth inhibition value (TGI), and safety was assessed based on animal weight change and mortality.
Preparation of test samples: compounds 34 or 35 was weighed and mixed with ultrapure water, and methanesulfonic acid was added for clarification. The PH value was about 1.64 at this moment. 4M NaOH was then added to adjust the PH to 3.5 and bring to volume by ultrapure water, the final concentrations was 20 mg/ml. Determination standard: TGI (%): […].
T/C % refers to the relative value-added rate of tumor, that is, the percentage value of relative tumor volume or tumor weight for the treatment group and the control group at a certain point. T and C were the relative tumor volumes (RTV) of the treatment group and the control group at a specific point, respectively. The calculation formula is as follows: T/C%=TRTV/CRTV*100% TRTV: mean RTV of the treatment group; CRTV: mean RTV of solvent control group; RTV=Vt/V0, V0 was the tumor volume of the animal when grouping, Vt was the tumor volume of the animal after treatment. Statistical analysis: all test results were defined as mean tumor volume±SEM (mean standard error). Tumor volume data of 27 days after the start of treatment were selected for statistical analysis among different groups, and independent sample T test was used to compare whether there were significant differences in tumor volume between the treatment group and the control group. All data were analyzed using SPSS 18.0. P<0.05 was considered as significant difference.

For another series, the system named is Pfeiffer (EZH2 A677G). As to the kind of experiment: In vitro 50% growth inhibition (GI50), MTT/CCK8, Pfeiffer cells. The class given is cell-based, Human. Particulars: Homo sapiens, Pfeiffer, 240 h; Drug treatment for 10 days. The text has this:
(§1) In the present invention, a representative tumor cell line was selected to determine the cell growth inhibition activity of the present compound. Cell culture conditions and methods were in accordance with the requirements for each cell lines. The cells were subcultured in vitro for less than 3 generations each time, and as required, monoclone purification and identification of cell lines could be carried out.
(§2) The cell culture media used were RPMI1640 (Gibco) comprising 5-20% of fetal bovine serum (Gibco), 1% of double-antibiotic and 2 mM of glutamine.
(§3) Suspension culture cells were collected by centrifugation (1700 rpm, 3 minutes), and the supernatant was discarded and the cells were counted. According to each cell growth cycle, different concentrations of cells were prepared (1-10×10^4 cells per ml) and added to 96-well plates (Corning) with 100 μl per well, and then incubated overnight at 37° C., 5% CO2. The next day, the test compound was added to the cultured cells (2 wells in parallel). The final concentration of the solvent was less than 1/1,000. The cells were further cultured for 6 to 12 days and assayed by MTT.
(§4) The compound was stored at a concentration of 10 mM at −20° C. and diluted to two-fold or 10-fold series prior to use.
(§5) For the suspension culture cells, CCK8 was directly added to 10% of the final concentration. The cells were continually incubated for […].
(§6) The experiments were repeated 3 times and a statistical analysis of data was conducted.

For the next series, the system named is Karpas-422 (EZH2 Y641N). As to the kind of experiment: In vitro 50% growth inhibition (GI50), MTT/CCK8, Karpas-422 cells. Particulars: Homo sapiens, KARPAS-422, 144 h; Drug treatment for 6 days. The class given is cell-based.
Text: as §1, §2, §3, §4, §5, §6

In another series the test system is SU-DHL-8 (EZH2 WT). As to the kind of experiment: In vitro 50% growth inhibition (GI50), MTT/CCK8, SU-DHL-8 cells. The format is cell-based. Particulars: Homo sapiens, SU-DHL-8, 144 h; Drug treatment for 6 days.
Text: as §1, §2, §3, §4, §5, §6

Series [2] is described as follows: In vivo pharmacokinetics in rats. Particulars: SD rats. The method, then: Test Example 4 Study of In Vivo Pharmacokinetics of the Present Compounds in Rats
Male SD rats (Shanghai Sippr-BK Experimental Animal Co., Ltd) were purchased and kept in Shanghai University of Traditional Chinese Medicine animal center (approved by the ethics committee of Shanghai University of Traditional Chinese Medicine) for 7 days. The rats were randomly divided into 4 groups (˜220 g), 3 rats for each group. Animals were administered intravenously (iv) and orally (po). The rats in po group were starved for 12 hours before administration. After administration, blood was collected from the orbital venous plexus at 0 min (before administration), 2 min, 5 min, 15 min, 30 min, 1 h, 2 h, 4 h, 6 h, 8 h and 24 h. About 200 ul of blood was collected at each time point, and were collected in 1.5 ml centrifuge tube containing heparin sodium. The upper blood […] were collected by centrifugation (8000 rpm, 3 min) and stored at −80° C.
Preparation of test samples: 125.0 mg compound 34 or compound 35 was weighed and added with 4 ml ultrapure water, and 25 ul methanesulfonic acid was added with stirring. The mixture was further stirred until clear and transparent (pH ˜3.32). 1 ml of the above solution was added with 4 ml of ultra-pure water to obtain 5 mg/ml of compound 34 or compound 35 solution (pH=3.5).
Dose and mode of administration: single oral dose (100 mpk) and single intravenous dose (5 mpk).
Administration volume: 4 ml/kg (orally), 1 ml/kg (intravenously).
The plasma concentration of the compound was determined by LC-MS/MS (AB scexqtrap@4500 LCMS/MS system). Pharmacokinetic parameters were calculated by WinNonlin (a professional software). The experiment was repeated once.

Setting [3] is: 200 mg/kg, 27th day after the start of treatment.
The mark [4] stands for this setting: 200 mg/kg, 27 days after the start of treatment.

On to `C=CC(=O)N1CCC(N(CC)c2cc(-c3ccc(CN4CCOCC4)cc3)cc(C(=O)NCc3c(C)cc(C)[nH]c3=O)c2C)CC1` [Example 35, N-(4,6-dimethyl-2-oxo-1,2-dihydro-pyridin-3-ylmethyl)-5-[(1-acryloyl-piperidin-4-yl)-ethyl-amino]-4-methyl-4′-(morpholin-4-ylmethyl)-[1,1′-biphenyl]-3-carboxamide], for which the “body weight during the treatment” value in series [1] (200 mg/kg dose) is “maintained a stable body weight”. Besides, the tolerability entry in series [1] (200 mg/kg dose) was “well tolerated”. In addition, the Tumor volume in series [1] (Day 0 after the start of treatment) amounted to 134 ± 9 mm^3; in series [1] (Day 3 after the start of treatment), 324 ± 38 mm^3; in series [1] (Day 7 after the start of treatment), 681 ± 72 mm^3; in series [1] (Day 10 after the start of treatment) it was 635 ± 88 mm^3; in series [1] (Day 14 after the start of treatment), 710 ± 87 mm^3; in series [1] (Day 17 after the start of treatment) it was 751 ± 135 mm^3. For the same compound, the Tumor volume in series [1] (Day 21 after the start of treatment) is given as 801 ± 152 mm^3; in series [1] (Day 24 after the start of treatment) it was 1029 ± 193 mm^3; in series [1] (Day 27 after the start of treatment, listed as Compound 35) it was 1116 ± 196 mm^3; in series [1] (Day 27 after the start of treatment, listed as compound 35), 1116 mm^3. Moreover, the “RTV (x ± S), relative tumor volume” value in series [1] (setting [3]) worked out at 8.2 ± 1.1. Moreover, the “T/C (%), relative tumor volume” value in series [1] (setting [3]) is on record as 57.7%. Also, in series [1] (setting [3]), the “TGI (%), relative tumor volume” value came out at 42.3%. Further, the “T/C (%), tumor weight” value in series [1] (setting [4]) is 51.3%. This compound also had a TGI, tumor weight in series [1] (setting [4]) of 48.7%. The “Tumor weight (mg) (x ± S)” value in series [1] (setting [4]) is recorded as 580 ± 99 mg. Further, the “anti-tumor effect, in words” value in series [1] (200 mg/kg, versus solvent control group) is recorded as “significant anti-tumor effects”. Besides, the GI50 (commonly the concentration at which growth is held to half of that of the control) in the series with Pfeiffer (EZH2 A677G) is 0.001 to 0.01 µM; in the series on Karpas-422 (EZH2 Y641N), 0.01 to 0.1 µM; in the series on SU-DHL-8 (EZH2 WT) it was more than 1 µM. The “bioavailability, in words” value in series [2] was “good bioavailability”. The bioavailability (commonly dose-corrected exposure relative to a reference, in per cent) in series [2] (male, rat, plasma, IV 5 mg/kg, PO 100 mg/kg, methanesulfonic acid aqueous solution) amounted to 39.1%.

The values are drawn from US11214561B2, “Histone methyltransferase EZH2 inhibitor, preparation method and pharmaceutical use thereof” (ANCUREALL PHARMACEUTICAL (SHANGHAI) CO., LTD., priority 2017, dated 2022).
